Assay results published in ChEMBL document CHEMBL1201862, “PubChem BioAssay data set” (2004).
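Following 48 hours of exposure in 96-well plates, responses at five concentrations were used to interpolate endpoints linearly. GI50 = concentration required for 50% inhibition of growth.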 Calls of active or inactive are those of the source. Cut-off read from the data, not from the text of the source: active = GI50 up to about 1.1 µM and inactive = higher.

Columns and labels:
Test in all cases: inhibition of tumour cell growth, NCI panel, 48 h
SNB-19 = tested on: SNB-19
NCI-H226 = tested on: NCI-H226
K562 = tested on: K562
BT-549 = tested on: BT-549
CAKI-1 = tested on: CAKI-1
OVCAR-8 = tested on: OVCAR-8
LOX IMVI = tested on: LOX IMVI
U-251 = tested on: U-251
MCF7 = tested on: MCF7
SN12C = tested on: SN12C
RXF 393 = tested on: RXF 393
PC-3 = tested on: PC-3
NCI/ADR-RES = tested on: NCI/ADR-RES
OVCAR-5 = tested on: OVCAR-5
NCI-H460 = tested on: NCI-H460
HCT-15 = tested on: HCT-15
TK-10 = tested on: TK-10
DU-145 = tested on: DU-145
CCRF-CEM = tested on: CCRF-CEM

Compound | GI50 (SNB-19) | GI50 (NCI-H226) | GI50 (K562) | GI50 (BT-549) | GI50 (CAKI-1) | GI50 (OVCAR-8) | GI50 (LOX IMVI) | GI50 (U-251) | GI50 (MCF7) | GI50 (SN12C) | GI50 (RXF 393) | GI50 (PC-3) | GI50 (NCI/ADR-RES) | GI50 (OVCAR-5) | GI50 (NCI-H460) | GI50 (HCT-15) [µM] | GI50 (TK-10) | GI50 (DU-145) | GI50 (CCRF-CEM)
Cn1cnc2c(OCC3CCCCC3)nc(N)nc21 | > 100 µM (inactive) | 44.1 µM (inactive) | > 100 µM (inactive) | > 100 µM (inactive) | > 100 µM (inactive) | > 100 µM (inactive) | 66.1 µM (inactive) | > 100 µM (inactive) | 11.7 µM (inactive) | > 100 µM (inactive) | > 100 µM (inactive) | > 100 µM (inactive) | > 100 µM (inactive) | > 100 µM (inactive) | > 100 µM (inactive) | > 100 | > 100 µM (inactive) | > 100 µM (inactive) | > 100 µM (inactive)
CN(C)CCCn1cnc2cc(Cl)c(Cl)cc21 | > 100 µM (inactive) | > 100 µM (inactive) | 67.3 µM (inactive) | 66.7 µM (inactive) | 64.3 µM (inactive) | > 100 µM (inactive) | 59.2 µM (inactive) | > 100 µM (inactive) | > 100 µM (inactive) | 43.8 µM (inactive) | 61.2 µM (inactive) | > 100 µM (inactive) | > 100 µM (inactive) | > 100 µM (inactive) | 91.8 µM (inactive) | > 100 | 42.7 µM (inactive) | > 100 µM (inactive) | 55.7 µM (inactive)
O=C(OCc1ccccc1)N1CCNCCN(C(=O)OCc2ccccc2)CCNCC1 | 47.5 µM (inactive) | 36.9 µM (inactive) | 25.5 µM (inactive) | 45.6 µM (inactive) | 15 µM (inactive) | 55.1 µM (inactive) | 13.2 µM (inactive) | 22 µM (inactive) | 17.7 µM (inactive) | 39.4 µM (inactive) | 52.8 µM (inactive) | 25.9 µM (inactive) | 75.7 µM (inactive) | 32.2 µM (inactive) | 21.6 µM (inactive) | 32.5 | 91.8 µM (inactive) | 95.7 µM (inactive) | 36.5 µM (inactive)
CC(=O)Oc1cc(OC(C)=O)c2c(c1C)CC[C@@H]1[C@@H]2CC[C@]2(C)[C@@H](OC(C)=O)CC[C@@H]12 | 18.6 µM (inactive) | 17.4 µM (inactive) | 22 µM (inactive) | 18.5 µM (inactive) | 24.5 µM (inactive) | 20.2 µM (inactive) | 18.4 µM (inactive) | 18 µM (inactive) | 19.3 µM (inactive) | 17.5 µM (inactive) | 13.1 µM (inactive) | 15.6 µM (inactive) | 22.5 µM (inactive) | > 10 µM (inactive) | 19.3 µM (inactive) | 17.3 | 20 µM (inactive) | 24.1 µM (inactive) | 17.5 µM (inactive)
Cc1cc(=O)n2nc(CSc3nnc(N)s3)sc2n1 | > 100 µM (inactive) | > 100 µM (inactive) | > 100 µM (inactive) | > 100 µM (inactive) | > 100 µM (inactive) | > 100 µM (inactive) | > 100 µM (inactive) | > 100 µM (inactive) | > 100 µM (inactive) | > 100 µM (inactive) | > 100 µM (inactive) | > 100 µM (inactive) | > 100 µM (inactive) | > 100 µM (inactive) | > 100 µM (inactive) | > 100 | > 100 µM (inactive) | > 100 µM (inactive) | > 100 µM (inactive)
OCCSCc1ccccc1 | > 100 µM (inactive) | > 100 µM (inactive) | > 100 µM (inactive) | > 100 µM (inactive) | > 100 µM (inactive) | > 100 µM (inactive) | > 100 µM (inactive) | > 100 µM (inactive) | > 100 µM (inactive) | > 100 µM (inactive) | > 100 µM (inactive) | > 100 µM (inactive) | > 100 µM (inactive) | > 100 µM (inactive) | > 100 µM (inactive) | > 100 | > 100 µM (inactive) | > 100 µM (inactive) | > 100 µM (inactive)
N#Cc1c(-c2ccc(Cl)cc2)cc(-c2ccc(Nc3ccnc4cc(C(F)(F)F)ccc34)cc2)nc1N | 16.9 µM (inactive) | 24.7 µM (inactive) | 14.5 µM (inactive) | 63 µM (inactive) | 57.7 µM (inactive) | > 100 µM (inactive) | 3.72 µM (inactive) | 18.7 µM (inactive) | 28.8 µM (inactive) | 22 µM (inactive) | 22.1 µM (inactive) | 32.9 µM (inactive) | > 100 µM (inactive) | 30.2 µM (inactive) | 32.8 µM (inactive) | 17.9 | 31.2 µM (inactive) | 28.1 µM (inactive) | 12.4 µM (inactive)
O=c1ssc2c1Nc1c(ssc1=O)S2 | 17.9 µM (inactive) | 23.4 µM (inactive) | 8 µM (inactive) | 25.3 µM (inactive) | 17.9 µM (inactive) | 14.8 µM (inactive) | 5.37 µM (inactive) | 16.4 µM (inactive) | 16.4 µM (inactive) | 14.4 µM (inactive) | 4.42 µM (inactive) | 12.6 µM (inactive) | 19.6 µM (inactive) | 17 µM (inactive) | 17.3 µM (inactive) | 11.4 | 16 µM (inactive) | 13.4 µM (inactive) | 2.05 µM (inactive)
